The nature of assay [1]: Functional potency was determined by concentration required for activation of OX1 (Orexin-1) receptor expressed in chinese hamster ovary cells (CHO) and increasing the intracellular calcium concentration. The class given is cell-based. Conditions: Cricetulus griseus. On the technique in general: Calcium assays in cells follow changes in intracellular calcium, usually with a dye or a luminescent sensor.

Assay [2] deals with T1, Orexin/Hypocretin receptor type 1 (Homo sapiens, UniProt O43613).
T1 sequence (O43613 whole entry): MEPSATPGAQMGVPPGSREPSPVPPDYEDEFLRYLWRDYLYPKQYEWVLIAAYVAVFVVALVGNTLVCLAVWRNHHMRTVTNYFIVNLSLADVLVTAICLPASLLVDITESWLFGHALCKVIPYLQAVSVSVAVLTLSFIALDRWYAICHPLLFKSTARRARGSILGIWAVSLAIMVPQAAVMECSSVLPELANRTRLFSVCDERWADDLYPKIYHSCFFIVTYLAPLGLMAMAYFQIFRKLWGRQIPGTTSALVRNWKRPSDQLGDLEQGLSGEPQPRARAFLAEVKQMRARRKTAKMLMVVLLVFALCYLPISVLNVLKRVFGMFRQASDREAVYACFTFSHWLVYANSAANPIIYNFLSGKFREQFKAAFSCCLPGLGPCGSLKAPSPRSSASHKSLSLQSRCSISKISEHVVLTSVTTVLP
Description: Binding affinity to Orexin receptor type 1 was determined using laser scanning cytometry.

The test system of assay [3] is CHO. Description: Percentage response for agonist like activity at 10 uM, relative to maximal orexin-A induced response in CHO cells was determined. The class given is functional, Cricetulus griseus.
Assay [4] relates to CHO. In words: Percentage response for agonist like activity at 10 uM, relative to maximal orexin-A induced response in CHO cells was determined; Inactive. The class given is functional, cell-based. Particulars: Cricetulus griseus.
For assay [5], the target named is T2, Orexin/Hypocretin receptor type 1 (Homo sapiens) (UniProt O43613).
T2 sequence (whole entry): T1 sequence (O43613 whole entry)
Description: Compound was tested for antagonist activity expressed as percentage response at 10 uM, relative to maximal orexin-A induced response against OX1 receptor; IA is Inactive. Type of assay: functional.

In assay [6] the test system is CHO. In words: Percentage response at 10 uM, relative to maximal orexin-A induced response; Inactive. The class given is functional, cell-based. Particulars: Cricetulus griseus.

The source made the active and inactive calls. The calls are words filed in the database; no cut-off is given here.

The EC50 is the concentration at which the effect is half-maximal. By Ki is commonly meant the dissociation constant of the complex between target and ligand, obtained from inhibition or displacement. Read a low Ki as tighter binding.

With `CC[C@H](C)[C@H](NC(=O)CNC(=O)[C@H](C)NC(=O)[C@H](C)NC(=O)[C@H](Cc1cnc[nH]1)NC(=O)[C@H](CC(N)=O)NC(=O)CNC(=O)[C@H](C)NC(=O)CNC(=O)[C@H](Cc1cnc[nH]1)NC(=O)[C@H](CC(C)C)NC(=O)[C@H](CC(C)C)NC(=O)[C@H](CCC(=O)O)NC(=O)[C@H](Cc1ccc(O)cc1)NC(=O)[C@H](CC(C)C)NC(=O)[C@@H](N)CCCNC(=N)N)C(=O)N[C@@H](CC(C)C)C(=O)N[C@H](C(=O)N[C@@H](CC(C)C)C(N)=O)[C@@H](C)O`, the EC50 in assay [1] was 355 nM. In assay [2], this compound gave a Ki of 269 nM.
Consider `CC[C@H](C)[C@H](NC(=O)[C@@H](C)NC(=O)[C@H](C)NC(=O)[C@H](C)NC(=O)[C@H](Cc1c[nH]cn1)NC(=O)[C@H](CC(N)=O)NC(=O)CNC(=O)[C@H](C)NC(=O)CNC(=O)[C@H](Cc1c[nH]cn1)NC(=O)[C@H](CC(C)C)NC(=O)[C@H](CC(C)C)NC(=O)[C@H](CCC(=O)O)NC(=O)[C@H](Cc1ccc(O)cc1)NC(=O)[C@H](CC(C)C)NC(=O)[C@@H](N)CCCN=C(N)N)C(=O)N[C@@H](CC(C)C)C(=O)N[C@H](C(=O)N[C@@H](CC(C)C)C(N)=O)[C@@H](C)O`, for which the Activity in the assay with CHO [3] is reported as 15%.
Regarding `CC[C@H](C)[C@H](NC(=O)CNC(=O)[C@H](C)NC(=O)[C@H](C)NC(=O)[C@H](Cc1c[nH]cn1)NC(=O)[C@H](CC(N)=O)NC(=O)CNC(=O)[C@H](C)NC(=O)CNC(=O)[C@H](Cc1c[nH]cn1)NC(=O)[C@H](CC(C)C)NC(=O)[C@H](CC(C)C)NC(=O)[C@H](CCC(=O)O)NC(=O)[C@H](Cc1ccc(O)cc1)NC(=O)[C@H](CC(C)C)NC(=O)[C@@H](N)CCCN=C(N)N)C(=O)N[C@@H](CC(C)C)C(=O)N[C@@H](C(=O)N[C@@H](CC(C)C)C(N)=O)[C@@H](C)O`, the outcome in the assay with CHO [4] was inactive.
As for H-ALYELLHGAGNHAAGILTL-NH2, the EC50 in assay [1] is 347 nM.
In the assay with CHO [3], H-ELLHGAGNHAAGILTL-NH2 displayed an Activity of 13%. Further, the Ki in assay [2] is 66100 nM.
H-GILTL-NH2: the outcome with CHO [4] was inactive.
H-GNHAAGILTL-NH2: the outcome in assay [5] was inactive.
Turning to H-LLHGAGNHAAGILTL-NH2, the Activity with CHO [3] is 16%.
On to H-RAYELLHGAGNHAAGILTL-NH2, for which, in the assay on CHO [3], the Activity amounted to 71%.
Turning to H-RLAELLHGAGNHAAGILTL-NH2, the EC50 in assay [1] is 776 nM.
Same read-out and setting: as for H-RLYALLHGAGNHAAGILTL-NH2, the figure is 195 nM.
In the assay with CHO [3], H-RLYEALHGAGNHAAGILTL-NH2 had an Activity of 60%.
Same read-out and setting: as for H-RLYELAHGAGNHAAGILTL-NH2, the figure is 37%.
Turning to H-RLYELLAGAGNHAAGILTL-NH2, the EC50 in assay [1] was 1290 nM.
Still for that read-out and setting: under H-RLYELLHAAGNHAAGILTL-NH2 stands 646 nM; under H-RLYELLHGAANHAAGILTL-NH2, 832 nM.
As for H-RLYELLHGAGNAAAGILTL-NH2, the Activity in the assay with CHO [3] came out at 61%.
Turning to H-RLYELLHGAGNHAAGALTL-NH2, in the assay on CHO [6], the result was inactive.
The compound H-RLYELLHGAGNHAAGIATL-NH2 displayed an Activity with CHO [3] of 12%.
The same measure, in the same setting: under H-RLYELLHGAGNHAAGILAL-NH2 stands 39%.
Still for that read-out and setting: as for H-RLYELLHGAGNHAAGILTA-NH2, the figure is 15%.
H-YELLHGAGNHAAGILTL-NH2: the Activity in the assay with CHO [3] is 40%.

The record behind these values is ChEMBL document CHEMBL1134228, “Structure-activity analysis of truncated orexin-A analogues at the orexin-1 receptor” (Bioorg Med Chem Lett, 2001).
